The record followed here is patent US4960770A, “2-alkyl thieno(triazolo)diazepine compounds and pharmaceutical uses thereof” (Yoshitomi Pharmaceutical Industries, Ltd., priority 1987, dated 1990).

≈ marks a conversion by molar mass, not a printed value. Read-outs that look alike come from different tables or passages of the source.

For test [1], the system named is PAF-induced platelet aggregation. Description: Inhibitory effect on platelet aggregation in rabbits (in vitro test). The class given is cell-based. As to conditions: Oryctolagus cuniculus, rabbit PRP, PAF 1.8×10^-7 M, 37° C., read-out: Inhibition of PAF-induced platelet aggregation, IC50. Here is the method: (§1) Blood samples to which was added 0.1 volume of 3.8% sodium citrate were collected from rabbits. Platelet rich plasma (PRP) was prepared by centrifuging the blood sample at 200 x g for 10 minutes, and platelet poor plasma (PPP) was prepared by centrifuging the remaining blood sample at 1000 x g for 10 minutes.
(§2) Aggregation ability was measured with a turbidimetric device (6-channel NKK Hematracer 1, model PAT-6A) according to the method of G.V.R. Born described in J. Physiology, vol. 168, p. 178 (1963). The aggregometer was adjusted in sensitivity to give light transmission values of 0 and 100% for PRP and PPP, respectively. With stirring at 1000 rpm, 0.3 μl of test compound solution or vehicle was added to 0.3 ml of PRP. After the mixture was kept at 37° C. for 2 minutes, to the mixture was added 3 μl of synthesized platelet activating factor at the final concentration of 1.8×10^-7 M and the light transmission was recorded for 5 minutes.
(§3) The inhibition percentage of test compounds on platelet aggregation were calculated from the following formula by measuring the maximal light transmission in the presence and absence of the test compounds. [formula]

The test system is the same in test [2]. The experiment in a line: Inhibitory effect on platelet aggregation in rabbits (ex vivo test). Conditions: 10 mg/kg p.o.; for inhibition at 10 mg/kg: Oryctolagus cuniculus, Platelet, po, read-out: % of inhibition after administration. As for the experimental part: as §1, §2, §3
Test compound was orally administered to a group of three rabbits instead of adding it to PRP as in vitro test of Experiment 2, and then the citrated blood samples (1 volume of 3.8% sodium citrate +9 volumes of blood) were collected with the passage of time. Then, the blood samples were employed to determine the inhibitory effect according to Experiment 2.

Test [3] concerns PAF-induced lethal shock. Description: Effect of PAF-induced lethal shock in mice. As to conditions: 1 hour before PAF 80 μg/kg i.v., 24 hours. Format: in vivo, male ICR mice. Here is the method:
The experiment was carried out according to the method of Young et al. described in Prostaglandins, vol. 30, p. […] Groups of 9 to 15 male ICR mice (Charles River) weighing 25-30 g were used. 80 μg/kg of PAF (Serdary Research Labo.) solution was intravenously administered in a lateral tail vein 1 hour after the oral administration of test compound (0.1 ml/10 g). […] Results were given as number of survivors/number of employed animals and survival rates (%) in Table 4.

Test [4] deals with calcium/calmodulin dependent phosphodiesterase. The experiment in a line: Effect on calcium/calmodulin dependent phosphodiesterase. The class given is biochemical. Conditions: [3H]-cAMP, pH 8.0, 37° C., 20 minutes; read-out: Inhibitory action on calcium/calmodulin dependent phosphodiesterase IC50. Here is the method:
The experiment was carried out according to the method of Thompson et al. described in Advances in Cyclic Nucleotide Research, Vol. 10, p. 69 (1979). Briefly, the solution of which final volume was 200μl was prepared by mixing 40 μl of 200 mM Tris-HCl buffer solution (pH 8.0), containing 25 mM magnesium chloride and 0.5 mM ethyleneglycol-bis(β-aminoethylether)-N,N '-tetra acetic acid (EGTA), 20 μof 10μM [^3 H]-cAMP (250 nCi), test compound and a solution of calcium/calmodulin dependent phosphodiesterase (PDE) enzyme. The test compound was dissolved in dimethyl sulfoxide to give 1% of final concentration. The incubation was performed at 37° C. for 20 minutes and then stopped by heating for 1 minutes in a boiling water bath. The resulting 5'-AMP was converted into adenosine by adding 50 μl of snake venom (1 mg/ml) and incubating at 30° C. for 10 minutes. Then, to the solution was added 500 μl of AGI-X8 (methanol:resin=3:2) and the mixture was allowed to stand under ice-cooling for 15 minutes with occasional shaking to adsorb the unreacted cAMP. After centrifuging, the radioactivity of the supernatant was measured by a liquid scintillation counter.
The action of the test compound on PDE activity was studied by calculating the inhibition percentage in the absence of calcium/calmodulin from the following formula, and represented as IC50 value. [formula] a: PDE activity in the presence of test compound and in the absence of calmodulin
b: PDE activity in the absence of test compound and calmoduline

Test [5] relates to coronary artery blood flow. The experiment in a line: Effect on coronary flow (coronary artery blood flow in anesthetized dogs). Format: in vivo, mongrel dogs. Conditions: relative to flow increase at 3 μg nifedipine. Here is the method: Adult mongrel dogs were anesthetized with sodium pentobarbital (30 mg/kg, i.v.). According to the method of Yago et al described in Folia Pharmacologica Japonica, vol. 57, p. 380 (1961), the left coronary artery was perfused and its blood flow was measured. Test compound was injected into the coronary artery at a volume of 10-30 μl. To determine the effect of the test compound on coronary artery blood flow, an increase percentage of blood flow at each dosage was calculated based on the increase of the blood flow at a dosage of 3 μg of nifedipine.

[6] abbreviates: dosage 30 μg into coronary artery.
Where [7] appears, read: dosage 100 μg into coronary artery.
Setting [8] is: dosage 300 μg into coronary artery.

Consider `CCc1cc2c(s1)-n1c(C)nnc1CN=C2c1ccccc1Cl` [Etizolam, 6-(o-chlorophenyl)-8-ethyl-1-methyl-4H-s-triazolo[3,4-c]thieno[2,3-e][1,4]diazepine, reference compound], for which the IC50 in test [1] is 1.3 µg/mL (≈ 3.79 µM). For the same compound, the “% of inhibition at each time after administration (in words)” value in test [2] (one entry for 1, 3 and 6 hours) is given as “no effect”.

`CCCCCCc1cc2c(s1)-n1c(C)nnc1CN=C2c1ccccc1Cl` [Example 54, 4-(2-chlorophenyl)-2-hexyl-9-methyl-6H-thieno[3,2-f][1,2,4]triazolo[4,3-a][1,4]diazepine]: the “Number of Survivors/Number of Animals” value in test [3] (0.3 mg/kg p.o.) is reported as 3/10; in test [3] (3 mg/kg p.o.), 10/10. Also, the values for the Survival rate in test [3] (0.3 mg/kg p.o.) and in test [3] (3 mg/kg p.o.) were 30% and 100%, respectively. For the same compound, the IC50 in test [1] was 0.03 to 0.1 µg/mL (≈ 0.0752 to 0.251 µM). For the same compound, the inhibition at 10 mg/kg in test [2] (1 hour) came out at 100%; in test [2] (3 hours), 100%; in test [2] (6 hours) it was 85%.

On to `CCCCCCc1cc2c(s1)-n1c(C)nnc1CN=C2c1ccccc1OC` [Example 55, 2-hexyl-4-(2-methoxyphenyl)-9-methyl-6H-thieno[3,2-f][1,2,4]triazolo[4,3-a][1,4]diazepine], for which the IC50 in test [1] fell in the range of 0.03 to 0.1 µg/mL (≈ 0.076 to 0.253 µM).

Regarding `CCCCCCCCc1cc2c(s1)-n1c(C)nnc1CN=C2c1ccccc1Cl` [Example 57, 4-(2-chlorophenyl)-2-octyl-9-methyl-6H-thieno[3,2-f][1,2,4]triazolo[4,3-a][1,4]diazepine], the results for the IC50 in test [4] and in test [1] were 11 µM and 0.01 to 0.1 µg/mL (≈ 0.0234 to 0.234 µM), respectively.

Take `CCCCCCc1cc2c(s1)-n1c(C)nnc1CN=C2c1ccccc1C` [Example 58, 2-hexyl-4-(2-methylphenyl)-9-methyl-6H-thieno[3,2-f][1,2,4]triazolo[4,3-a][1,4]diazepine]: the “Effect on coronary blood flow” value in test [5] (setting [6]) amounted to 63%; in test [5] (setting [7]), 107%; in test [5] (setting [8]) it was 136%.

For `CCCCCCc1cc2c(s1)-n1c(C)nnc1CN=C2c1ccc(C)cc1` [Example 61, 2-hexyl-4-(4-methylphenyl)-9-methyl-6H-thieno[3,2-f][1,2,4]triazolo[4,3-a][1,4]diazepine], the figures for the “Effect on coronary blood flow” value in test [5] (setting [6]), in test [5] (setting [7]) and in test [5] (setting [8]) were 55%, 69% and 103%, respectively. Further, the “Number of Survivors/Number of Animals” value in test [3] (1 mg/kg p.o.) is given as 6/8; in test [3] (3 mg/kg p.o.), 8/8. For the same compound, the values for the Survival rate in test [3] (1 mg/kg p.o.) and in test [3] (3 mg/kg p.o.) were 75% and 100%, respectively.

On to `CCCCCCc1cc2c(s1)-n1c(C)nnc1CN=C2c1cccc(C)c1` [Example 62, 2-hexyl-4-(3-methylphenyl)-9-methyl-6H-thieno[3,2-f][1,2,4]triazolo[4,3-a][1,4]diazepine], for which, in test [3] (3 mg/kg p.o.), the “Number of Survivors/Number of Animals” value is reported as 6/8 and the Survival rate was determined as 75%. In addition, the IC50 in test [4] is 11 µM.

As for `CCCCCCCCCCc1cc2c(s1)-n1c(C)nnc1CN=C2c1ccccc1OC` [Example 69, 2-decyl-4-(2-methoxyphenyl)-9-methyl-6H-thieno[3,2-f][1,2,4]triazolo[4,3-a][1,4]diazepine], in test [1], the IC50 lay within 0.3 to 1 µg/mL (≈ 0.666 to 2.22 µM).

`CCCCCCCCCCc1cc2c(s1)-n1c(C)nnc1CN=C2c1ccccc1Cl` [Example 72, 4-(2-chlorophenyl)-2-decyl-9-methyl 6H-thieno[3,2-f][1,2,4]triazolo[4,3-a][1,4]-diazepine]: the IC50 in test [1] lay in the range of 0.03 to 0.1 µg/mL (≈ 0.0659 to 0.22 µM).

Take `CCCCCCCCCCCCc1cc2c(s1)-n1c(C)nnc1CN=C2c1ccccc1Cl` [Example 73, 4-(2-chlorophenyl)-2-dodecyl-9-methyl-6H-thieno[3,2-f][1,2,4]triazolo[4,3-a][1,4]-diazepine]: the IC50 in test [1] lay in the range of 0.3 to 1 µg/mL (≈ 0.621 to 2.07 µM).

As to `CCOC(=O)C1=C[C@]2(CC)CCCN3CCc4c(n1c1ccccc41)[C@@H]32` [vinpocetine, reference compound], the IC50 in test [4] amounted to 88 µM.
